# Measurements published in patent US20260131015A1, “NEODEGRADER CONJUGATES” (priority 2022, published 2026).
# What was measured:
# [1] = test system: NCI-H526 human SCLC cell line; assay: In Vitro Cytotoxicity Assay III (WST-8 cell viability); assay type: cell-based; settings: NCI-H526, 120 hours, WST-8, Table 5
# Description: (§1) Cell lines were harvested and plated into 96-well plates. […] The cell viability was determined by colorimetric WST-8 assay (Dojindo Molecular Technologies, Inc.). The OD450 value was read using the SpectraMax M5 plate reader. The values were normalized for each cell line, and IC50 values were calculated using the Prism software.
# [2] = test system: IMR32 human neuroblastoma (NB) cell line; assay: as above; assay type: cell-based; settings: IMR32, 120 hours, WST-8, Table 5
# Description: as §1
# [3] = test system: NCI-H526 human SCLC cell line; assay: In Vitro Cytotoxicity Assay I (WST-8 cell viability); assay type: cell-based; settings: NCI-H526, 120 hours, WST-8, Table 3
# Description: (§2) The cell viability was determined by colorimetric WST-8 assay (Dojindo Molecular Technologies, Inc.). The OD450 value was read using the SpectraMax M5 plate reader. The values were normalized for each cell line, and IC50 values were calculated using the Prism software.
# [4] = test system: IMR32 human neuroblastoma (NB) cell line; assay: as above; assay type: cell-based; settings: IMR32, 120 hours, WST-8, Table 3
# Description: as §2
# [5] = test system: NCI-H146 SCLC cell line; assay: In Vitro Cytotoxicity Assay II (WST-8 cell viability); assay type: cell-based; settings: NCI-H146, 120 hours, WST-8, Table 4
# Description: as §1, with “IC50s” for “IC50 values”
# [6] = test system: NCI-H510A SCLC cell line; assay: as above; assay type: cell-based; settings: 120 hours, WST-8, Table 4
# Description: as §1, with “IC50s” for “IC50 values”
# [7] = test system: NCI-H82 SCLC cell line; assay: as above; assay type: cell-based; settings: NCI-H82, 120 hours, WST-8, Table 4
# Description: as §1, with “IC50s” for “IC50 values”
# [8] = test system: NCI-H526 SCLC cell line; assay: as above; assay type: cell-based, human; settings: NCI-H526, 120 hours, WST-8, Table 4
# Description: as §1, with “IC50s” for “IC50 values”
# [9] = test system: NCI-H1048 SCLC cell line; assay: as above; assay type: cell-based, human; settings: NCI-H1048, 120 hours, WST-8, Table 4
# Description: as §1, with “IC50s” for “IC50 values”
smiles,measurement,setting,value
"Cc1ccc(NC(=O)NCc2ccc3c(c2)CN(C2CCC(=O)NC2=O)C3=O)cc1Cl (stereo not drawn) [CC-885, reference compound]",IC50,[1],128 pM
same,IC50,[2],99.4 pM
same,IC50,[3],118 pM
same,IC50,[4],145 pM
same,IC50,[5],527 pM
same,IC50,[6],230 pM
same,IC50,[7],603 pM
same,IC50,[8],177 pM
same,IC50,[9],40.9 pM
